Where “and” joins values, the source holds several entries; their conditions need not be identical. Equal entries are not always repeated. Toxic doses and inconclusive results are not listed.
Test system: P388 leukemia ip, CD2F1 mice, survival T/C
Experiment: NCI In Vivo Anticancer Drug Screen. Data for tumor model P388 Leukemia (intraperitoneal) in CD2F1 (CDF1) mice
Conditions: endpoint: median survival time, higher = longer survival
How it was run: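 Mice carrying the transplanted tumor received test compound or vehicle. Survival was recorded in each group, and the value is the treated-group measurement divided by that of the vehicle-treated control group.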

[1] = dose: 50.0 mg/kg/injection, schedule: Q01DX005 (ip), vehicle: Klucel (hydroxypropylcellulose) (HPC)
[2] = dose: 100.0 mg/kg/injection, schedule: Q01DX005 (ip), vehicle: Klucel (hydroxypropylcellulose) (HPC)
[3] = dose: 200.0 mg/kg/injection, schedule: Q01DX005 (ip), vehicle: Klucel (hydroxypropylcellulose) (HPC)
[4] = dose: 100.0 mg/kg/injection, schedule: Q04DX003 (ip), vehicle: Klucel (hydroxypropylcellulose) (HPC)
[5] = dose: 200.0 mg/kg/injection, schedule: Q04DX003 (ip), vehicle: Klucel (hydroxypropylcellulose) (HPC)
[6] = dose: 400.0 mg/kg/injection, schedule: Q04DX003 (ip), vehicle: Klucel (hydroxypropylcellulose) (HPC)
[7] = dose: 50.0 mg/kg/injection, schedule: Q01DX009 (ip), vehicle: suspension in saline
[8] = dose: 100.0 mg/kg/injection, schedule: Q01DX009 (ip), vehicle: suspension in saline
[9] = dose: 200.0 mg/kg/injection, schedule: Q01DX009 (ip), vehicle: suspension in saline
[10] = dose: 60.0 mg/kg/injection, schedule: Q01DX005 (ip), vehicle: saline with Tween-80
[11] = dose: 120.0 mg/kg/injection, schedule: Q01DX005 (ip), vehicle: saline with Tween-80
[12] = dose: 240.0 mg/kg/injection, schedule: Q01DX005 (ip), vehicle: saline with Tween-80
[13] = dose: 100.0 mg/kg/injection, schedule: Q01DX009 (ip), vehicle: saline with Tween-80
[14] = dose: 200.0 mg/kg/injection, schedule: Q01DX009 (ip), vehicle: saline with Tween-80
[15] = dose: 60.0 mg/kg/injection, schedule: Q01DX005 (ip), vehicle: Klucel (hydroxypropylcellulose) (HPC)
[16] = dose: 120.0 mg/kg/injection, schedule: Q01DX005 (ip), vehicle: Klucel (hydroxypropylcellulose) (HPC)
[17] = dose: 240.0 mg/kg/injection, schedule: Q01DX005 (ip), vehicle: Klucel (hydroxypropylcellulose) (HPC)
[18] = dose: 50.0 mg/kg/injection, schedule: Q01DX009 (ip), vehicle: saline
[19] = dose: 100.0 mg/kg/injection, schedule: Q01DX009 (ip), vehicle: saline
[20] = dose: 200.0 mg/kg/injection, schedule: Q01DX009 (ip), vehicle: saline
[21] = dose: 6.25 mg/kg/injection, schedule: Q01DX009 (ip), vehicle: saline with Tween-80
[22] = dose: 12.5 mg/kg/injection, schedule: Q01DX009 (ip), vehicle: saline with Tween-80
[23] = dose: 25.0 mg/kg/injection, schedule: Q01DX009 (ip), vehicle: saline with Tween-80
[24] = dose: 50.0 mg/kg/injection, schedule: Q01DX009 (ip), vehicle: saline with Tween-80

## COc1ccc2c(c1OC)C(=O)OC2
[1]
  T/C: 90 % of control
[2]
  T/C: 90 % of control
[3]
  T/C: 90 % of control

## Cn1cc(/C=C/[N+](=O)[O-])c2ccccc21
[4]
  T/C: 105 % of control
[5]
  T/C: 99 % of control
[6]
  T/C: 100 % of control

## Cc1nc(N)cc(=O)[nH]1
[7]
  T/C: 89 % of control
[8]
  T/C: 93 % of control
[9]
  T/C: 91 % of control
dose: 400.0 mg/kg/injection, schedule: Q01DX009 (ip), vehicle: suspension in saline
  T/C: 101 % of control

## CCO/C(CC#N)=C(/C#N)C(=O)Nc1ccc(OC)cc1
[10]
  T/C: 95 % of control
[11]
  T/C: 93 % of control
[12]
  T/C: 89 % of control

## CC(C)C1SCC(=O)N1c1nncs1 (stereo not drawn)
[10]
  T/C: 103 % of control
[11]
  T/C: 112 % of control
[12]
  T/C: 107 % of control

## O=[N+]([O-])c1cccc(/C=C/C=C/c2cccc(S(=O)(=O)F)c2)c1
[13]
  T/C: 90 % of control
[14]
  T/C: 86 % of control
dose: 400.0 mg/kg/injection, schedule: Q01DX009 (ip), vehicle: saline with Tween-80
  T/C: 86 % of control

## CN1c2cc3ccccc3cc2N(C)c2cc3ccccc3cc21
[1]
  T/C: 90 % of control
[3]
  T/C: 88 % of control

## O=C(O)c1cc2cccc([N+](=O)[O-])c2[se]1
[7]
  T/C: 106 % of control
[8]
  T/C: 96 % of control
[9]
  T/C: 113 % of control

## CCOc1cccc(/C=C2\NC(=S)N(c3ccccc3)C2=O)c1O
[1]
  T/C: 101 % of control
[2]
  T/C: 93 % of control
[3]
  T/C: 99 % of control

## CCO/C=C1\N=C(C(O)(c2ccc(Cl)cc2)c2ccc(Cl)cc2)OC1=O
[15]
  T/C: 95 % of control
[16]
  T/C: 92 % of control
[17]
  T/C: 98 % of control

## O=c1nc2n(CC(O)C(O)C(O)C(O)CO)c3cc(Cl)c(Cl)cc3nc-2c(=O)[nH]1 (stereo not drawn)
dose: 50.0 mg/kg/injection, schedule: Q01DX005 (ip), vehicle: saline with Tween-80
  T/C: 105 % of control
dose: 100.0 mg/kg/injection, schedule: Q01DX005 (ip), vehicle: saline with Tween-80
  T/C: 111 % of control

## NC(=O)C(CCc1nc2ccccc2[nH]1)NS(=O)(=O)c1ccccc1 (stereo not drawn)
dose: 50.0 mg/kg/injection, schedule: Q01DX009 (ip), vehicle: Klucel (hydroxypropylcellulose) (HPC)
  T/C: 102 % of control
dose: 100.0 mg/kg/injection, schedule: Q01DX009 (ip), vehicle: Klucel (hydroxypropylcellulose) (HPC)
  T/C: 101 % of control
dose: 200.0 mg/kg/injection, schedule: Q01DX009 (ip), vehicle: Klucel (hydroxypropylcellulose) (HPC)
  T/C: 102 % of control

## CC(Cl)CN1CCOC1=O (stereo not drawn)
dose: 12.5 mg/kg/injection, schedule: Q01DX001 (ip), vehicle: saline
  T/C: 106 % of control
dose: 25.0 mg/kg/injection, schedule: Q01DX001 (ip), vehicle: saline
  T/C: 96 % of control
dose: 50.0 mg/kg/injection, schedule: Q01DX001 (ip), vehicle: saline
  T/C: 105 % of control
dose: 100.0 mg/kg/injection, schedule: Q01DX001 (ip), vehicle: saline
  T/C: 102 % of control

## COc1ccc(C(=O)CC2=NC3NN(c4ccccc4)C(=O)C3=C2CC(=O)c2ccc(OC)cc2)cc1 (stereo not drawn)
dose: 60.0 mg/kg/injection, schedule: Q01DX005 (ip), vehicle: suspension in saline
  T/C: 101 % of control
dose: 120.0 mg/kg/injection, schedule: Q01DX005 (ip), vehicle: suspension in saline
  T/C: 108 % of control
dose: 240.0 mg/kg/injection, schedule: Q01DX005 (ip), vehicle: suspension in saline
  T/C: 112 % of control

## COc1ccc2c(c1)CN1C(CCC3c4ccccc4NC31)C2 (stereo not drawn)
[10]
  T/C: 99 % of control
[11]
  T/C: 95 % of control
[12]
  T/C: 95 % of control

## O=[N+]([O-])c1ccc(S(=O)/N=C/c2ccccc2)c([N+](=O)[O-])c1 (stereo not drawn)
dose: 12.5 mg/kg/injection, schedule: Q01DX009 (ip), vehicle: Klucel (hydroxypropylcellulose) (HPC)
  T/C: 119 % of control
dose: 25.0 mg/kg/injection, schedule: Q01DX009 (ip), vehicle: Klucel (hydroxypropylcellulose) (HPC)
  T/C: 118 % of control

## c1ccc(Sc2c(-c3ccccc3)c(-c3ccccc3)c3n2CCC3)cc1
[15]
  T/C: 86 % of control
[16]
  T/C: 86 % of control

## O=C(O)/C(Cl)=C(\Cl)C(=O)Nc1c(Cl)cccc1Cl
[10]
  T/C: 101 % of control
[11]
  T/C: 100 % of control

## CC(=O)OCC1(C)ON=C2CCCCC21 (stereo not drawn)
dose: 100.0 mg/kg/injection, schedule: Q01DX001 (ip), vehicle: saline with Tween-80
  T/C: 94 % of control
dose: 200.0 mg/kg/injection, schedule: Q01DX001 (ip), vehicle: saline with Tween-80
  T/C: 104 % of control
dose: 400.0 mg/kg/injection, schedule: Q01DX001 (ip), vehicle: saline with Tween-80
  T/C: 94 % of control

## COc1ccc2nc(NC(=O)C(=O)C(C)C(=O)c3ccc(Cl)cc3)sc2c1 (stereo not drawn)
[10]
  T/C: 108 % of control
[11]
  T/C: 98 % of control
[12]
  T/C: 105 % of control

## CS/C(=C1/C(=O)N(c2ccccc2)N=C1c1ccccc1)N1CC1
[4]
  T/C: 98 % of control
[5]
  T/C: 94 % of control
[6]
  T/C: 95 % of control

## CC1C(=O)C(C)C(c2ccc(Cl)cc2)OC1c1ccc(Cl)cc1 (stereo not drawn)
[18]
  T/C: 112 % of control
[19]
  T/C: 103 % of control
[20]
  T/C: 114 % of control

## CCOC(=O)C(NC(C)=O)(C(=O)OCC)c1ccc(N)cn1
dose: 100.0 mg/kg/injection, schedule: Q04DX003 (ip), vehicle: saline
  T/C: 99 % of control
dose: 200.0 mg/kg/injection, schedule: Q04DX003 (ip), vehicle: saline
  T/C: 103 % of control
dose: 400.0 mg/kg/injection, schedule: Q04DX003 (ip), vehicle: saline
  T/C: 98 % of control

## Cc1ccc(/C=C/C(=O)C(CN(C)C)CN(C)C)cc1C
dose: 6.25 mg/kg/injection, schedule: Q01DX005 (ip), vehicle: saline with Tween-80
  T/C: 100 % of control
dose: 12.5 mg/kg/injection, schedule: Q01DX005 (ip), vehicle: saline with Tween-80
  T/C: 109 % of control

## CC1OC(CC(=O)O)Cc2c1c(O)c1c(O)cc(-c3cc(=O)c4c(=O)c5c(c(=O)c=4c3=O)CC(CC(=O)O)OC5C)c(O)c1c2O (stereo not drawn)
[21]
  T/C: 100 % of control
[22]
  T/C: 102 % of control
[23]
  T/C: 103 % of control

## CC(CCc1ccc2c(c1)c(=N)c1ccc(N)cc1n2O)CC(C)(C)C (stereo not drawn)
dose: 1.56 mg/kg/injection, schedule: Q04DX002 (ip), vehicle: distilled water + Tween-80
  T/C: 102 % of control and 96 % of control
dose: 3.12 mg/kg/injection, schedule: Q04DX002 (ip), vehicle: distilled water + Tween-80
  T/C: 106 % of control and 94 % of control
dose: 6.25 mg/kg/injection, schedule: Q04DX002 (ip), vehicle: distilled water + Tween-80
  T/C: 100 % of control and 120 % of control
dose: 12.5 mg/kg/injection, schedule: Q04DX002 (ip), vehicle: distilled water + Tween-80
  T/C: 102 % of control and 98 % of control (2×)

## CSC(=S)N=Nc1c(O)[nH]c2ccccc12
[18]
  T/C: 93 % of control
[19]
  T/C: 96 % of control
[20]
  T/C: 99 % of control

## CCC(C)C(NC(=O)OCc1ccccc1)C(=O)ON1C(=O)CCC1=O (stereo not drawn)
dose: 66.0 mg/kg/injection, schedule: Q04DX003 (ip), vehicle: saline with Tween-80
  T/C: 100 % of control
dose: 100.0 mg/kg/injection, schedule: Q04DX003 (ip), vehicle: saline with Tween-80
  T/C: 104 % of control
dose: 150.0 mg/kg/injection, schedule: Q04DX003 (ip), vehicle: saline with Tween-80
  T/C: 109 % of control

## O=S(=O)(CS(=O)(=O)c1ccc(Cl)c(Cl)c1)c1ccc(Cl)c(Cl)c1
dose: 60.0 mg/kg/injection, schedule: Q01DX005 (ip), vehicle: Klucel + Tween-80
  T/C: 94 % of control
dose: 120.0 mg/kg/injection, schedule: Q01DX005 (ip), vehicle: Klucel + Tween-80
  T/C: 102 % of control

## Nc1ccc2c(n1)NCC/C2=N\Nc1ccccc1
[24]
  T/C: 115 % of control
[13]
  T/C: 96 % of control
[14]
  T/C: 100 % of control

## COC(=O)NN(C(=O)OC)C1CCC2C1c1ccccc1N(C(=O)OC)N2C(=O)OC (stereo not drawn)
[15]
  T/C: 108 % of control
[16]
  T/C: 113 % of control
[17]
  T/C: 103 % of control

## Cc1cccc2nccn12
[21]
  T/C: 97 % of control
[22]
  T/C: 95 % of control
[23]
  T/C: 97 % of control
[24]
  T/C: 100 % of control

— PubChem BioAssay AID330 (DTP/NCI, 2004)
